For orientation: pIC50 means the negative decadic logarithm of the IC50, by convention in mol/L.

pIC50: −log10 of the molar value.

These results are taken from patent US10428066B2, “Imidazo[4,5-C]pyridine and pyrrolo[2,3-C]pyridine derivatives as SSAO inhibitors” (PROXIMAGEN, LLC, priority 2013, dated 2019).

The assay has as its target purified recombinantly expressed human SSAO (Homo sapiens (Human), UniProt Q16853). Briefly: SSAO enzyme inhibition assay (HRP-coupled hydrogen peroxide detection or 14C-benzaldehyde detection, benzylamine substrate). The class given is biochemical. The following applies: human recombinant SSAO, RT. The protocol: All primary assays were performed at RT. with purified recombinantly expressed human SSAO. Enzyme was prepared essentially as described in Öhman et al. (Protein Expression and Purification 46 (2006) 321-331). In addition, secondary- and selectivity assays were performed using SSAO prepared from various tissues or purified rat recombinant SSAO. The enzyme activity was assayed with benzylamine as substrate by measuring either benzaldehyde production, using ^14C-labeled substrate, or by utilizing the production of hydrogen peroxide in a horseradish peroxidase (HRP) coupled reaction. Briefly, test compounds were dissolved in dimethyl sulfoxide (DMSO) to a concentration of 10 mM. Dose-response measurements were assayed by either creating 1:10 serial dilutions in DMSO to produce a 7 point curve or by making 1:3 serial dilutions in DMSO to produce 11 point curves.
In a horseradish peroxidase (HRP) coupled reaction, hydrogen peroxide oxidation of 10-acetyl-3,7-dihydroxyphenoxazine produced resorufin, which is a highly fluorescent compound (Zhout and Panchuk-Voloshina. Analytical Biochemistry 253 (1997) 169-174; Amplex® Red Hydrogen Peroxide/peroxidase Assay kit, Invitrogen A22188). Enzyme and compounds in 50 mM sodium phosphate, pH 7.4 were set to pre-incubate in flat-bottomed microtiter plates for approximately 15 min before initiating the reaction by addition of a mixture of HRP, benzylamine and Amplex reagent. Benzylamine concentration was fixed at a concentration corresponding to the Michaelis constant, determined using standard procedures. Fluorescence intensity was then measured at several time points during 1-2 h, exciting at 544 nm and reading the emission at 590 nm. For the human SSAO assay final concentrations of the reagents in the assay wells were: SSAO enzyme 1 ug/ml, benzylamine 100 uM, Amplex reagent 20 uM, HRP 0.1 U/mL and varying concentrations of test compound. The inhibition was measured as % decrease of the signal compared to a control without inhibitor (only diluted DMSO). The background signal from a sample containing no SSAO enzyme was subtracted from all data points. Data was fitted to a four parameter logistic model and IC50 values were calculated using the GraphPad Prism 4 or XLfit 4 programs.
SSAO activity was assayed using 14C-labeled benzylamine and analysed by measuring radioactive benzaldehyde. In a white 96-well optiplate (Packard), 20 uL of diluted test compound was pre-incubated at room temperature with 20 uL SSAO enzyme for approximately 15 min with continuous agitation. All dilutions were made with PBS. The reaction was initiated by adding 20 uL of the benzylamine substrate solution containing [7-14C] Benzylamine hydrochloride (CFA589, GE Healthcare). The plate was incubated for 1 h as above after which the reaction was stopped by acidification (10 uL 1M aq HCl). Then 90 uL Micro Scint-E solution (Perkin-Elmer) was added to each well and the plate was continuously mixed for 15 min. Phase separation occurred instantly and activity was read in a Topcount scintillation counter (Perkin-Elmer). In the final reaction well, the human recombinant SSAO concentration was 10 ug/ml. In order to optimize sensitivity, the substrate concentration was decreased as compared to the HRP coupled assay in order to get a higher fraction of radioactive product. In the human SSAO assay, benzylamine concentration was 40 uM (0.2 uCi/mL). Data was analysed as above.

Sequence of purified recombinantly expressed human SSAO (Q16853 29-763): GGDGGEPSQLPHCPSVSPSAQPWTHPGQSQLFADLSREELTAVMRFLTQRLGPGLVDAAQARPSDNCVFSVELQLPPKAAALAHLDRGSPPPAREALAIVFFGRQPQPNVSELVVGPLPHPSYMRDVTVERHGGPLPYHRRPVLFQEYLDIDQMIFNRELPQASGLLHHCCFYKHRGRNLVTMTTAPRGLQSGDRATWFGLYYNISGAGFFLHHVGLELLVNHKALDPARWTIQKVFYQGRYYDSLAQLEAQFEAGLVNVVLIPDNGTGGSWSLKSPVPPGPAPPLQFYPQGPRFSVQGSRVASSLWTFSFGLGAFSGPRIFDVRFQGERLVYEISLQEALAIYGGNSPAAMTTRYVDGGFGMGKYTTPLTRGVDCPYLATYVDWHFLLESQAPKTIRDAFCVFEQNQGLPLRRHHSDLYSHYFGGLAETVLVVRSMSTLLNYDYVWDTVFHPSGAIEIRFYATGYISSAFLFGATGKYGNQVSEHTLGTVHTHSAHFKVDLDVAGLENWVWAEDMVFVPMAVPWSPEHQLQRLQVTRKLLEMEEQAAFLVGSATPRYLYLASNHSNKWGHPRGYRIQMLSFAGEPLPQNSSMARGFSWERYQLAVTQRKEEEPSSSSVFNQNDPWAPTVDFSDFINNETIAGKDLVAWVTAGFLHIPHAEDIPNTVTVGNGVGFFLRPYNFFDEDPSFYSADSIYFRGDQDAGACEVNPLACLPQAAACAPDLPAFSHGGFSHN

Take `Fc1ccc(-n2c(-c3cnc(N4CCOCC4)nc3)nc3ccncc32)c(Cl)c1` [Example 56, 4-{5-[3-(2-Chloro-4-fluorophenyl)-3H-imidazo[4,5-c]pyridin-2-yl]pyrimidin-2-yl}morpholine]: the pIC50 is 5.92 to 6.70.
As for `Cc1ccc(-n2c(-c3cnc(N4CCOCC4)nc3)nc3ccncc32)cc1` [Example 57, 4-{5-[3-(4-Methylphenyl)-3H-imidazo[4,5-c]pyridin-2-yl]pyrimidin-2-yl}morpholine], the pIC50 is 6.70 to 7.30.
Then `Cc1ccc(-n2c(-c3cnc(N4CCOCC4)nc3)nc3ccncc32)cn1` [Example 58, 4-{5-[3-(6-Methylpyridin-3-yl)-3H-imidazo[4,5-c]pyridin-2-yl]pyrimidin-2-yl}morpholine], with 5.92 to 6.70; and `Brc1ccc(-n2c(-c3cnc(N4CCOCC4)nc3)nc3ccncc32)cc1` [Example 59, 4-{5-[3-(4-Bromophenyl)-3H-imidazo[4,5-c]pyridin-2-yl]pyrimidin-2-yl}morpholine], with 6.70 to 7.30; and `Fc1ccccc1-n1c(-c2cnc(N3CCOCC3)nc2)nc2ccncc21` [Example 60, 4-{5-[3-(2-Fluorophenyl)-3H-imidazo[4,5-c]pyridin-2-yl]pyrimidin-2-yl}morpholine], with 6.70 to 7.30.
The figure for `Cc1cc(F)ccc1-n1c(-c2ccc(N3CCOCC3)nc2)nc2ccncc21` [Example 62, 4-{5-[3-(4-Fluoro-2-methylphenyl)-3H-imidazo[4,5-c]pyridin-2-yl]pyridin-2-yl}morpholine] is 6.70 to 7.30; for `Cc1ccc(-n2c(-c3ccc(N4CCOCC4)nc3)nc3ccncc32)cc1` [Example 63, 4-{5-[3-(4-Methylphenyl)-3H-imidazo[4,5-c]pyridin-2-yl]pyridin-2-yl}morpholine] it is 5.92 to 6.70; for `Cc1ccc(-n2c(-c3ccc(N4CCOCC4)nc3)nc3ccncc32)cn1` [Example 64, 4-{5-[3-(6-Methylpyridin-3-yl)-3H-imidazo[4,5-c]pyridin-2-yl]pyridin-2-yl}morpholine] it is 5.92 to 6.70.
In the case of `FC(F)(F)c1ccc(-n2c(-c3ccc(N4CCOCC4)nc3)nc3ccncc32)cc1` [Example 66, 4-(5-{3-[4-(Trifluoromethyl)phenyl]-3H-imidazo[4,5-c]pyridin-2-yl}pyridin-2-yl)morpholine], the pIC50 was 6.70 to 7.30.
The figure for `CN(C)c1ccc(-c2nc3ccncc3n2-c2ccc(F)cc2)cn1` [Example 71, 5-[3-(4-Fluorophenyl)-3H-imidazo[4,5-c]pyridin-2-yl]-N,N-dimethylpyridin-2-amine] is 5.92 to 6.70; for `CN(C)c1ncc(-c2nc3ccncc3n2-c2ccc(Cl)cc2)cn1` [Example 72, 5-[3-(4-Chlorophenyl)-3H-imidazo[4,5-c]pyridin-2-yl]-N,N-dimethylpyrimidin-2-amine] it is 5.92 to 6.70.
Then `Fc1ccc(-n2c(-c3ccnc(N4CCOCC4)c3)nc3ccncc32)cc1` [Example 73, 4-{4-[3-(4-Fluorophenyl)-3H-imidazo[4,5-c]pyridin-2-yl]pyridin-2-yl}morpholine], with 6.70 to 7.30; and `Fc1cc(-n2c(-c3cnc(N4CCOCC4)nc3)nc3ccncc32)ccc1Cl` [Example 74, 4-{5-[3-(4-Chloro-3-fluorophenyl)-3H-imidazo[4,5-c]pyridin-2-yl]pyrimidin-2-yl}morpholine], with 5.92 to 6.70.
As for `Fc1ccc(-n2c(-c3cnc(N4CCOCC4)nc3)nc3ccncc32)nc1` [Example 76, 4-{5-[3-(5-Fluoropyridin-2-yl)-3H-imidazo[4,5-c]pyridin-2-yl]pyrimidin-2-yl}morpholine], the pIC50 was 6.70 to 7.30.
On to `Fc1cc(Cl)ccc1-n1c(-c2cnc(N3CCOCC3)nc2)nc2ccncc21` [Example 77, 4-{5-[3-(4-Chloro-2-fluorophenyl)-3H-imidazo[4,5-c]pyridin-2-yl]pyrimidin-2-yl}morpholine], for which the negative-log IC50 (pIC50) is 5.92 to 6.70.
As for `Fc1cc(Cl)ccc1-n1c(-c2ccc(N3CCOCC3)nc2)nc2ccncc21` [Example 80, 4-{5-[3-(4-Chloro-2-fluorophenyl)-3H-imidazo[4,5-c]pyridin-2-yl]pyridin-2-yl}morpholine], the pIC50 is 6.70 to 7.30.
For `NC(=O)NC1CCN(c2ccc(-c3nc4ccncc4n3-c3ccc(Cl)cc3)cn2)CC1` [Example 91, (1-{5-[3-(4-Chlorophenyl)-3H-imidazo[4,5-c]pyridin-2-yl]pyridin-2-yl}piperidin-4-yl)urea; bis(trifluoroacetic acid)], the pIC50 is 5.92 to 6.70.
The figure for `NC(=O)N1CCN(c2ncc(-c3nc4ccncc4n3-c3ccc(Cl)cc3)o2)CC1` [Example 93, 4-{5-[3-(4-Chlorophenyl)-3H-imidazo[4,5-c]pyridin-2-yl]-1,3-oxazol-2-yl}piperazine-1-carboxamide] is 6.70 to 7.30.
For the compound `NC(=O)N1CCCN(c2ccc(-c3nc4ccncc4n3-c3ccc(F)cc3)cn2)CC1` [Example 94, 4-{5-[3-(4-Fluorophenyl)-3H-imidazo[4,5-c]pyridin-2-yl]pyridin-2-yl}-1,4-diazepane-1-carboxamide], the negative logarithm of the IC50 (pIC50) is 5.92 to 6.70.
Then `c1ccc(-n2c(-c3cnc(N4CCOCC4)nc3)nc3ccncc32)cc1` [Example 95, 4-(5-{3-Phenyl-3H-imidazo[4,5-c]pyridin-2-yl}pyrimidin-2-yl) morpholine], with 6.70 to 7.30.
The figure for `c1cc2nc(-c3cnc(N4CCOCC4)nc3)n(-c3ccc(C4CC4)cc3)c2cn1` [Example 96, 4-{5-[3-(4-Cyclopropylphenyl)-3H-imidazo[4,5-c]pyridin-2-yl]pyrimidin-2-yl}morpholine] is 6.70 to 7.30.
Then `Cc1ccc(-n2c(-c3cnc(N4CCOCC4)cc3C)nc3ccncc32)cc1` [Example 97, 4-{4-Methyl-5-[3-(4-methylphenyl)-3H-imidazo[4,5-c]pyridin-2-yl]pyridin-2-yl}morpholine], with 5.92 to 6.70; and `Fc1ccc(-n2c(-c3cnc(N4CCOCC4)c(F)c3)nc3ccncc32)cc1` [Example 98, 4-{3-Fluoro-5-[3-(4-fluorophenyl)-3H-imidazo[4,5-c]pyridin-2-yl]pyridin-2-yl}morpholine], with 6.70 to 7.30; and `Cc1cc(NC2CCOCC2)ncc1-c1nc2ccncc2n1-c1ccc(F)cc1` [Example 100, 5-[3-(4-Fluorophenyl)-3H-imidazo[4,5-c]pyridin-2-yl]-4-methyl-N-(oxan-4-yl)pyridin-2-amine], with 5.92 to 6.70.
`Cc1cc(NCC2CC2)ncc1-c1nc2ccncc2n1-c1ccc(F)cc1` [Example 101, N-(Cyclopropylmethyl)-5-[3-(4-fluorophenyl)-3H-imidazo[4,5-c]pyridin-2-yl]-4-methylpyridin-2-amine]: the pIC50 is 6.70 to 7.30.
Consider `Cc1ccc(-n2c(-c3ccc(N4C[C@@H](C)O[C@@H](C)C4)nc3)nc3ccncc32)cn1` [Example 103, (2R,6S)-2,6-Dimethyl-4-{5-[3-(6-methylpyridin-3-yl)-3H-imidazo[4,5-c]pyridin-2-yl]pyridin-2-yl}morpholine; tris(trifluoroacetic acid)], for which the negative-log IC50 (pIC50) was 6.70 to 7.30.
The figure for `Nc1ccc(-c2nc3ccncc3n2-c2ccc(Cl)cc2F)cn1` [Example 105, 5-[3-(4-Chloro-2-fluorophenyl)-3H-imidazo[4,5-c]pyridin-2-yl]pyridin-2-amine] is 5.92 to 6.70; for `CN1CCN(c2ccc(-c3nc4ccncc4n3-c3ccc(F)cc3)cn2)CC1=O` [Example 106, 4-{5-[3-(4-Fluorophenyl)-3H-imidazo[4,5-c]pyridin-2-yl]pyridin-2-yl}-1-methylpiperazin-2-one] it is 6.70 to 7.30.
